The values that follow come from paper PMC7667638 (Journal of Medicinal Chemistry, 2020).

Like-named read-outs stand apart in the source and are kept apart here.

Assay [1] has as its target T1, hNaV1.4 (Homo sapiens, UniProt P35499). Description: cell-based. Particulars: for IC50: SEM.
The next assay concerns rNaV1.4. The conditions noted are these: read-out: IC50 (nM ± SEM), rat NaV1.4; cited from earlier work.
The target in assay [2] is T2, hNaV1.7 (Homo sapiens, UniProt Q15858). Description: cell-based. The conditions noted are these: SEM.
For assay [3], the target named is T1, hNaV1.4. Description: cell-based. It counts as cell-based.
Assay [4] deals with T2, hNaV1.7. The experiment in a line: cell-based. It counts as cell-based.
Assay [5] addresses T1, hNaV1.4. Particulars: cited from earlier work.
The target in assay [6] is T2, hNaV1.7. Particulars: SEM; cited from earlier work.

T2 sequence (Q15858 whole entry, looked up): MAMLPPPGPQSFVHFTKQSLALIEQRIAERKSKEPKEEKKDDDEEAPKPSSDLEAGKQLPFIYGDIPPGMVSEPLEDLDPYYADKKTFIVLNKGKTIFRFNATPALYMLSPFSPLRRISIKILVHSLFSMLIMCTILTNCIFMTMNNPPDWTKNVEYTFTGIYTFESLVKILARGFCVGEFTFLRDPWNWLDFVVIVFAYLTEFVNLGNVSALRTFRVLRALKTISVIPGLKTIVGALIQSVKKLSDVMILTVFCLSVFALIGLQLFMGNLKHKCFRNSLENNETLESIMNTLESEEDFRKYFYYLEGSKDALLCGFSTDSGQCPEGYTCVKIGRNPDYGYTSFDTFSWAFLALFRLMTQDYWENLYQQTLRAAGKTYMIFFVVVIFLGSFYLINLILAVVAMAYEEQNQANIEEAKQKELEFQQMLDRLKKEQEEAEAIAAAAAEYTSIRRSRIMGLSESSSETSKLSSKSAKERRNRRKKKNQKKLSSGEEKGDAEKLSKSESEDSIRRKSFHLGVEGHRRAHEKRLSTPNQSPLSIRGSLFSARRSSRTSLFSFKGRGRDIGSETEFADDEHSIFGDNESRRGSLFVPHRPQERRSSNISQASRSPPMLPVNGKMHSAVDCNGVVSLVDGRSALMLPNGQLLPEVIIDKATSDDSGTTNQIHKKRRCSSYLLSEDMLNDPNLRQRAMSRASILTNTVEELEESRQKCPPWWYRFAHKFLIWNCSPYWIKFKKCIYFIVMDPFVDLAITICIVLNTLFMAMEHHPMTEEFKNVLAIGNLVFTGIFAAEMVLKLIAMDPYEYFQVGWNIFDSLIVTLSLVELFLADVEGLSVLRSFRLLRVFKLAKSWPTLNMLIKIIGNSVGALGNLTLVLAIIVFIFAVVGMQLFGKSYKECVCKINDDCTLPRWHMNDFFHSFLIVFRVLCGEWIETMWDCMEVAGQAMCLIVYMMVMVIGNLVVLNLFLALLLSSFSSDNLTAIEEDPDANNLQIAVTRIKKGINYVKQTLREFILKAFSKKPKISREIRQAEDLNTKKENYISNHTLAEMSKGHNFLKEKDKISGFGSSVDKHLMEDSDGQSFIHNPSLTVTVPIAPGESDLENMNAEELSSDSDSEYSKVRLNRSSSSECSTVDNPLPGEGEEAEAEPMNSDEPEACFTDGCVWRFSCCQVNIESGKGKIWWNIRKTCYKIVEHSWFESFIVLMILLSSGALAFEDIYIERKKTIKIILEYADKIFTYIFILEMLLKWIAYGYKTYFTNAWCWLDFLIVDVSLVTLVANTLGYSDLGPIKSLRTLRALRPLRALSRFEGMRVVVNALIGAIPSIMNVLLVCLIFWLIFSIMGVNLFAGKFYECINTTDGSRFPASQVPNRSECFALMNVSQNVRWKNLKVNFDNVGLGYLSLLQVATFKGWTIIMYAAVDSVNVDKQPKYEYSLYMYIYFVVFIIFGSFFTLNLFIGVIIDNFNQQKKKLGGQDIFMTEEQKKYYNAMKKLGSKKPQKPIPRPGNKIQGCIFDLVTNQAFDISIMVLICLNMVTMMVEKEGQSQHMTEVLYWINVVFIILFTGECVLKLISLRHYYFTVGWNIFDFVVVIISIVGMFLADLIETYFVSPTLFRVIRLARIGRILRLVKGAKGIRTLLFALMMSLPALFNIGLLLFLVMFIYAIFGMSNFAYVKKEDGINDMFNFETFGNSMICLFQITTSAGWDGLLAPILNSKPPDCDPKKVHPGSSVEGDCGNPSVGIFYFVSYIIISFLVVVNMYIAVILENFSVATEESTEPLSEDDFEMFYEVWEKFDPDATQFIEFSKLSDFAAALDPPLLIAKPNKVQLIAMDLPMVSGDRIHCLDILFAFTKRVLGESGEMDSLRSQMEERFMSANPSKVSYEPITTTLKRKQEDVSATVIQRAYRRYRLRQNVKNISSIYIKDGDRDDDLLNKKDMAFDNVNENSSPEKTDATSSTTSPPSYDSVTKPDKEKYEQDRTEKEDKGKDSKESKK
T1 sequence (P35499 whole entry, looked up): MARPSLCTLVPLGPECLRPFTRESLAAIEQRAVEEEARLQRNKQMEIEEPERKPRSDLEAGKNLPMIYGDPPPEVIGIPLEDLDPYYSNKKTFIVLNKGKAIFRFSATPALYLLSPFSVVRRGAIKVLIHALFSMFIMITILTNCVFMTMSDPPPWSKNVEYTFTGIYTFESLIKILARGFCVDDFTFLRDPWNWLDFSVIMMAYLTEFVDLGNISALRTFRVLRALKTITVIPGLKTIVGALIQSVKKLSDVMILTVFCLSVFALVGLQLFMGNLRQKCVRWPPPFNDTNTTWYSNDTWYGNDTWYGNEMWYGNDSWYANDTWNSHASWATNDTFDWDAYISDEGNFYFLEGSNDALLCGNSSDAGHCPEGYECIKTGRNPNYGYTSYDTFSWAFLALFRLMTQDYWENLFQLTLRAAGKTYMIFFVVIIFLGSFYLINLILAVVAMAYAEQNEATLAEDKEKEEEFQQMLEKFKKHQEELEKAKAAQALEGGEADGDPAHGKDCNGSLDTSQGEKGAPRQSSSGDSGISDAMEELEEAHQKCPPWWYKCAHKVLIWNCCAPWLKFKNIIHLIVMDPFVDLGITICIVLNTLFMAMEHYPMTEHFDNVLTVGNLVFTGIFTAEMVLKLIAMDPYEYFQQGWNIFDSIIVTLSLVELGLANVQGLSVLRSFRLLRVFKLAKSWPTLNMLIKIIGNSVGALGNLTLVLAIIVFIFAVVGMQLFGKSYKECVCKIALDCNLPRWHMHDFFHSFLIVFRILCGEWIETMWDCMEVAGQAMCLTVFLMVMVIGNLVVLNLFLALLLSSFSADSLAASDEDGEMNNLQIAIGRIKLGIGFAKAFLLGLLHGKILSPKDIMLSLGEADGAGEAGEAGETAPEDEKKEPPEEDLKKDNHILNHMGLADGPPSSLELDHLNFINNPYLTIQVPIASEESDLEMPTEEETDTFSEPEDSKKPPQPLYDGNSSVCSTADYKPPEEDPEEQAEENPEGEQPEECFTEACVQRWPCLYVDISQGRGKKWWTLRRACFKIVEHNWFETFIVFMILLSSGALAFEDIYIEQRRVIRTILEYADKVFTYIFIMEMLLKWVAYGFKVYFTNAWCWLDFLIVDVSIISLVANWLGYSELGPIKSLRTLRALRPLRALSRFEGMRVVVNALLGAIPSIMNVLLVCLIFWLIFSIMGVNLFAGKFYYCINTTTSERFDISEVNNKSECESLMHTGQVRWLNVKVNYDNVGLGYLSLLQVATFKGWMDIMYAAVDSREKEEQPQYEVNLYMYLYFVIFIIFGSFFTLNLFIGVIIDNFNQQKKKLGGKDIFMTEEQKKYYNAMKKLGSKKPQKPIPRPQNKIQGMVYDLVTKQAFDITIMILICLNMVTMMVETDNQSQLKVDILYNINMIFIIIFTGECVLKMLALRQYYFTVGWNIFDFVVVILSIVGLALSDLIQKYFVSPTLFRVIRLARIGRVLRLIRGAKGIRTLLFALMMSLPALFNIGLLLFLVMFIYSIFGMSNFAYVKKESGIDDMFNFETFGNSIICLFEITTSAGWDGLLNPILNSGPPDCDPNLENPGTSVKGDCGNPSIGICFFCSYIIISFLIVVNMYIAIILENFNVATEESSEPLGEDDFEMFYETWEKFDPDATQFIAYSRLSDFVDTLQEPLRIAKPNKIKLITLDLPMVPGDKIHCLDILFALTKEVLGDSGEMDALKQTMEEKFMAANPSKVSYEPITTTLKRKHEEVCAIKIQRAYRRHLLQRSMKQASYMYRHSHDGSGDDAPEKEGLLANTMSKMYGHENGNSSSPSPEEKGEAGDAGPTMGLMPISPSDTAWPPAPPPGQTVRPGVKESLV

`N=C(N)NCCC[C@@H]1NC(=O)[C@H](CO)NC(=O)[C@H](Cc2c[nH]cn2)NC(=O)[C@H](CC(=O)O)NC(=O)[C@H](CCCNC(=N)N)NC(=O)[C@@H]2CSSC[C@@H]3NC(=O)[C@@H](NC(=O)[C@@H](N)CCCCn4cc(C[C@H](N)C(=O)NCCOCCOCCOCCOCCC(=O)NCCOCCOCCOCCOCCC(=O)NCCOCCOCCOCCOCCC(=O)NCCOCCOCCOCCOCCC(=O)NN)nn4)CSSC[C@H](NC1=O)C(=O)N[C@H](C(N)=O)CSSC[C@H](NC(=O)[C@H](CC(N)=O)NC3=O)C(=O)N[C@@H](CO)C(=O)N[C@@H](CO)C(=O)N[C@@H](CCCCN)C(=O)N[C@@H](Cc1c[nH]c3ccccc13)C(=O)N2` [[K-KIIIA]-[PEG80]]: on hNaV1.4 [1], the “IC50 relative to 1, hNaV1.4” value is on record as 16.0× ↑ and the IC50 came out at 144 ± 46 nM.
Turning to μ-theraphotoxin-Hs2a [HwTx-IV], the half-inhibitory concentration (IC50) in the assay on rNaV1.4 is 400 nM.
On to `[N-]=[N+]=NCCCC[C@H](N)C(=O)N[C@H]1CSSC[C@@H]2NC(=O)[C@H](CCCNC(=N)N)NC(=O)[C@H](CO)NC(=O)[C@H](Cc3c[nH]cn3)NC(=O)[C@H](CC(=O)O)NC(=O)[C@H](CCCNC(=N)N)NC(=O)[C@@H]3CSSC[C@H](NC1=O)C(=O)N[C@@H](CC(N)=O)C(=O)N[C@@H](CSSC[C@@H](C(N)=O)NC2=O)C(=O)N[C@@H](CO)C(=O)N[C@@H](CO)C(=O)N[C@@H](CCCCN)C(=O)N[C@@H](Cc1c[nH]c2ccccc12)C(=O)N3` [AzK-KIIIA], for which the “IC50 relative to 1, hNaV1.4” value against hNaV1.4 [1] came out at 3.6× ↑. The IC50 at hNaV1.4 [1] turned out to be 32 ± 10 nM; against hNaV1.7 [2] it was 96 ± 41 nM. Moreover, the “recovery of sodium current at end of washout, hNaV1.4” value on hNaV1.4 [3] is on record as roughly 40%. In addition, the koff was 0.00118 s⁻¹ at hNaV1.4 [3] (read-out: koff, hNaV1.4, SEM) and 0.000392 s⁻¹ on hNaV1.7 [4] (read-out: koff, hNaV1.7, SEM). Also, the kon turned out to be 39700 M⁻¹ s⁻¹ on hNaV1.4 [3] (read-out: kon, hNaV1.4) and 16200 M⁻¹ s⁻¹ on hNaV1.7 [4] (read-out: kon, hNaV1.7). Besides, the “recovery of sodium current at end of washout, hNaV1.7” value on hNaV1.7 [4] came to 12.6 ± 1.2%.
Regarding `N=C(N)NCCC[C@@H]1NC(=O)[C@H](CO)NC(=O)[C@H](Cc2c[nH]cn2)NC(=O)[C@H](CC(=O)O)NC(=O)[C@H](CCCNC(=N)N)NC(=O)[C@@H]2CSSC[C@@H]3NC(=O)[C@@H](N)CSSC[C@@H](C(N)=O)NC(=O)[C@H](CSSC[C@H](NC(=O)[C@H](CC(N)=O)NC3=O)C(=O)N[C@@H](CO)C(=O)N[C@@H](CO)C(=O)N[C@@H](CCCCN)C(=O)N[C@@H](Cc3c[nH]c4ccccc34)C(=O)N2)NC1=O` [µ-KIIIA-ox-p2], at hNaV1.7 [2], it took 154 ± 15 nM to reach half-maximal inhibition (IC50).
Regarding “E1G, E4G, Y33W huwentoxin-IV [m3-HwTx-IV]”, the 50% inhibitory concentration (IC50) was 369 ± 196 nM on hNaV1.4 [5] (SEM); 370 nM at hNaV1.4 [5] (read-out: IC50 (nM ± SEM), hNaV1.4); 0.4 ± 0.1 nM at hNaV1.7 [6].
`N=C(N)NCCC[C@@H]1NC(=O)[C@H](CO)NC(=O)[C@H](Cc2c[nH]cn2)NC(=O)[C@H](CC(=O)O)NC(=O)[C@H](CCCNC(=N)N)NC(=O)[C@@H]2CSSC[C@@H]3NC(=O)[C@@H](N)CSSC[C@H](NC1=O)C(=O)N[C@H](C(N)=O)CSSC[C@H](NC(=O)[C@H](CC(N)=O)NC3=O)C(=O)N[C@@H](CO)C(=O)N[C@@H](CO)C(=O)N[C@@H](CCCCN)C(=O)N[C@@H](Cc1c[nH]c3ccccc13)C(=O)N2` [μ-KIIIA, μ-conotoxin KIIIA] gave an IC50 against hNaV1.7 [2] of 132 ± 37 nM.

In general, IC50 refers to the concentration needed to halve the response being measured. Broadly, the koff is a measure of how fast the partners let go of each other. One may read the kon as the second-order rate constant of association.
